Molecular target: p38 MAP-kinase (Homo sapiens, UniProt Q16539)
Assay: Enzymatic assay: inhibition of p38 MAP-kinase (phosphorylation of GST-tagged ATF2, chemoluminescence bead readout)
Type: biochemical
Settings: inhibitor 1 μM, activated p38 MAP-kinase 1 nM, 4 h preincubation, ATP 100 μM, ATF2 10 nM; for inhibition at 1 µM: read-out: % inhibitory effect at 1 μM
Procedure: In this, the amount of a substrate phosphorylated by the kinase is quantified. The test is carried out as follows:
The kinase reaction is carried out in the presence of HEPES (20 mM, pH 7), MgCl2 (10 mM), DTT (1 mM) and TWEEN20 (0.01%). First, dimethylsulphoxide or inhibitor (final concentration: 1 μM) dissolved in dimethylsulphoxide are placed in a reaction vessel. Then the activated p38 MAP-kinase (final concentration 1 nM) is added and the mixture is incubated for 4 h at ambient temperature. Then a mixture of substrate (GST-tagged ATF2) and ATP is added and everything is incubated together for a further hour (final concentration ATP: 100 μM; final concentration ATF2: 10 nM).
The concentration of phosphorylated ATF2 is quantified by chemoluminescence-induced light emission. For this, a glutathione donor bead (final concentration: 5 μg/ml) which binds to the gluthathione on the ATF2 and phospho-ATF2 antibodies are added to the reaction mixture (final concentration: 3 nM; this binds the phosphate group added by the kinase reaction) to which a Protein A Acceptor Bead (final concentration: 5 μg/ml) binds. These components are dissolved in a buffer which contains 20 mM HEPES pH 7.0, 200 mM NaCL, 80 mM EDTA as well as 0.3% BSA. This reaction mixture is incubated in the dark for 1 hour at ambient temperature. When these beads come physically close, visible light is emitted which is measured in a photometer at 520-620 nm.
To determine the inhibitory activity of the compounds according to the invention a calculation is made to determine the percentage by which the kinase activity is inhibited at a fixed inhibitor concentration of 1 μM. The maximum activity is determined by non-inhibited kinase. The minimum activity or nonspecific background activity is determined using a reaction mixture without kinase. […] Table 2 summarises the degree of inhibition of the enzyme p38 MAP-kinase—as described hereinbefore—of the compounds according to the invention detailed in the section “Preparation of the final compounds”.

Chain of p38 MAP-kinase (Q16539 whole entry): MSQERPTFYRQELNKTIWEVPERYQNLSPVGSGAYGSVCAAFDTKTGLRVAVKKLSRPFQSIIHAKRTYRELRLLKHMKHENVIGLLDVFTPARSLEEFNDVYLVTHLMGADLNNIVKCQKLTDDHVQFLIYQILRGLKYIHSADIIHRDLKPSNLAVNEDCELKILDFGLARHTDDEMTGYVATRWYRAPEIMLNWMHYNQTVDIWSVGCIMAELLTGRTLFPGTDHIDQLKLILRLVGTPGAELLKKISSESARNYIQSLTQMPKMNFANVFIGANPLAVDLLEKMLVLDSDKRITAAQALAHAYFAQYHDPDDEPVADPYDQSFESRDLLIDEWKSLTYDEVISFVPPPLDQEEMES

SMILES | inhibition at 1 µM [%] | % inhibitory effect at 1 μM [%]
CNc1nccc(Oc2cc(C(=O)Nc3cc(C(C)(C)C)cc(NS(C)(=O)=O)c3OC)ccc2C)n1 [Example 3, N-(5-tert-butyl-3-methanesulphonylamino-2-methoxy-phenyl)-4-methyl-3-(2-methylamino-pyrimidin-4-yloxy)-benzamide] | 98.1 | 
COc1c(NC(=O)c2ccc(C)c(Oc3cc(CN(C)CCN(C)C)ncn3)c2)cc(C(C)(C)C)cc1NS(C)(=O)=O [8(30), N-(5-tert-butyl-3-methanesulphonylamino-2-methoxy-phenyl)-3-(6-{[(2-dimethylamino-ethyl)-methyl-amino]-methyl}-pyrimidin-4-yloxy)-4-methyl-benzamide] | 91.3 | 
COc1c(CO)cc(C(C)(C)C)cc1NC(=O)c1ccc(C)c(Oc2ccnc(CN3CCN(C)CC3)n2)c1 [Example 13, N-(5-tert-butyl-3-hydroxymethyl-2-methoxy-phenyl)-4-methyl-3-[2-(4-methyl-piperazin-1-ylmethyl)-pyrimidin-4-yloxy]-benzamide] | 98.2 | 
CNC(=O)c1cc(Oc2cc(C(=O)Nc3cc(C(C)(C)C)cc(NS(C)(=O)=O)c3OC)ccc2C)ncn1 [Example 7, 6-[5-(5-tert-butyl-3-methanesulphonylamino-2-methoxy-phenylaminocarbonyl)-2-methyl-phenoxy]-pyrimidin-4-carboxylic acid-methylamide] | 95.6 | 
COc1c(NC(=O)c2ccc(C)c(Oc3ccnc(CN(C)CCN(C)C)n3)c2)cc(C(C)(C)C)cc1NS(C)(=O)=O [8(24), N-(5-tert-butyl-3-methanesulphonylamino-2-methoxy-phenyl)-3-(2-{[N-(2-dimethylamino-ethyl)-N-methyl-amino]-methyl}-pyrimidin-4-yloxy)-4-methyl-benzamide] | 92.4 | 
COc1c(NC(=O)c2ccc(C)c(Oc3cc(C(=O)N4CCNCC4)ncn3)c2)cc(C(C)(C)C)cc1NS(C)(=O)=O [5(2), N-(5-tert-butyl-3-methanesulphonylamino-2-methoxy-phenyl)-4-methyl-3-[6-(piperazine-1-carbonyl)-pyrimidin-4-yloxy]-benzamide x trifluoroacetic acid] | 93.2 | 
COc1c(NC(=O)c2ccc(C)c(Oc3ccnc(CN4CCN(C)CC4)n3)c2)cc(C(C)(C)C)cc1[S+](C)[O-] (stereo not drawn) [13(1), N-(5-tert-butyl-3-methanesulphinyl-2-methoxy-phenyl)-4-methyl-3-[2-(4-methyl-piperazin-1-ylmethyl)-pyrimidin-4-yloxy]-benzamide] | 97 | 
COc1c(NC(=O)c2ccc(C)c(Oc3ccnc(CC4CCCN(C)CC4)c3)c2)cc(C(C)(C)C)cc1NS(C)(=O)=O (stereo not drawn) [Example 12, N-(5-tert-butyl-3-methanesulphonylamino-2-methoxy-phenyl)-4-methyl-3-[2-(1-methyl-azepan-4-ylmethyl)-pyridin-4-yloxy]-benzamide] | 97.5 | 
COc1c(NC(=O)c2ccc(C)c(Oc3cc(N4CCOCC4)ncn3)c2)cc(C(C)(C)C)cc1NS(C)(=O)=O [4(5), N-(5-tert-butyl-3-methanesulphonylamino-2-methoxy-phenyl)-4-methyl-3-(6-morpholin-4-yl-pyrimidin-4-yloxy)-benzamide] | 97.4 | 
COc1c(NC(=O)c2ccc(C)c(Oc3ccnc(N(C)C4CCNCC4)n3)c2)cc(C(C)(C)C)cc1NS(C)(=O)=O [5(25), N-(5-tert-butyl-3-methanesulphonylamino-2-methoxy-phenyl)-4-methyl-3-[2-(methyl-piperidin-4-yl-amino)-pyrimidin-4-yloxy]-benzamide] |  | 97.6
COc1c(NC(=O)c2ccc(C)c(Oc3ccnc(CN[C@@H]4CCOC4)c3)c2)cc(C(C)(C)C)cc1NS(C)(=O)=O [8(15), (R)-N-(5-tert-butyl-3-methanesulphonylamino-2-methoxy-phenyl)-4-methyl-3-{2-[(tetrahydro-furan-3-ylamino)-methyl]-pyridin-4-yloxy}-benzamide] | 95.9 | 
COc1c(NC(=O)c2ccc(Cl)c(Oc3cc(CNCCN(C)C)ncn3)c2)cc(C(C)(C)C)cc1NS(C)(=O)=O [8(31), N-(5-tert-butyl-3-methanesulphonylamino-2-methoxy-phenyl)-4-chloro-3-{6-[(2-dimethylamino-ethylamino)-methyl]-pyrimidin-4-yloxy}-benzamide] | 86.5 | 
COc1c(NC(=O)c2ccc(Cl)c(Oc3ccnc(CN4CCCNCC4)c3)c2)cc(C(C)(C)C)cc1NS(C)(=O)=O [5(37), N-(5-tert-butyl-3-methanesulphonylamino-2-methoxy-phenyl)-4-chloro-3-(2-[1,4]diazepan-1-ylmethyl-pyridin-4-yloxy)-benzamide] | 99.3 | 
COc1c(NC(=O)c2ccc(C)c(Oc3ccnc(CC4CCNCC4)c3)c2)cc(C(C)(C)C)cc1NS(=O)(=O)CC(C)C [5(46), N-[5-tert-butyl-2-methoxy-3-(2-methyl-propane-1-sulphonylamino)-phenyl]-4-methyl-3-(2-piperidin-4-ylmethyl-pyridin-4-yloxy)-benzamide] | 99.6 | 
COc1c(NC(=O)c2ccc(C)c(Oc3cc(N4CCNCC4)ncn3)c2)cc(C(C)(C)C)cc1NS(C)(=O)=O [5(1), N-(5-tert-butyl-3-methanesulphonylamino-2-methoxy-phenyl)-4-methyl-3-(6-piperazin-1-yl-pyrimidin-4-yloxy)-benzamide] | 96.8 | 
COc1c(NC(=O)c2ccc(C)c(Oc3cc(NCCO)ncn3)c2)cc(C(C)(C)C)cc1NS(C)(=O)=O [4(1), N-(5-tert-butyl-3-methanesulphonylamino-2-methoxy-phenyl)-3-[6-(2-hydroxy-ethylamino)-pyrimidin-4-yloxy]-4-methyl-benzamide] | 96.8 | 
COc1c(NC(=O)c2ccc(Cl)c(Oc3ccnc(CC4CCNCC4)c3)c2)cc(C(C)(C)C)cc1NS(C)(=O)=O [5(29), N-(5-tert-butyl-3-methanesulphonylamino-2-methoxy-phenyl)-4-chloro-3-(2-piperidin-4-ylmethyl-pyridin-4-yloxy)-benzamide] | 99 | 
COc1c(NC(=O)c2ccc(C)c(Oc3ccnc(CN4CC[C@@H](N(C)C)C4)n3)c2)cc(C(C)(C)C)cc1NS(C)(=O)=O [8(22), (R)-N-(5-tert-butyl-3-methanesulphonylamino-2-methoxy-phenyl)-3-[2-(3-dimethylamino-pyrrolidin-1-ylmethyl)-pyrimidin-4-yloxy]-4-methyl-benzamide] | 98.3 | 
COc1c(NC(=O)c2ccc(Cl)c(Oc3ccnc(CC4CCN(C)CC4)c3)c2)cc(C(C)(C)C)cc1NS(C)(=O)=O [12(5), N-(5-tert-butyl-3-methanesulphonylamino-2-methoxy-phenyl)-4-chloro-3-[2-(1-methyl-piperidin-4-ylmethyl)-pyridin-4-yloxy]-benzamide] | 99.5 | 
COc1ccc(C(=O)Nc2cc(C(C)(C)C)cc(NS(C)(=O)=O)c2OC)cc1Oc1ccnc(N2CCNCC2)n1 [5(8), N-(5-tert-butyl-3-methanesulphonylamino-2-methoxy-phenyl)-4-methoxy-3-(2-piperazin-1-yl-pyrimidin-4-yloxy)-benzamide] | 98.9 | 
COc1c(NC(=O)c2ccc(C)c(Oc3ccnc(CN4CCCN(C)CC4)c3)c2)cc(C(C)(C)C)cc1NS(C)(=O)=O [8(20), N-(5-tert-butyl-3-methanesulphonylamino-2-methoxy-phenyl)-4-methyl-3-[2-(4-methyl-homopiperazin-1-ylmethyl)-pyridin-4-yloxy]-benzamide] | 99.4 | 

Source: patent US8946438B2, “Benzamides, production thereof, and use thereof as medicaments” (Boehringer Ingelheim International GmbH, priority 2008, dated 2015)
